The target of this assay is Replicase polyprotein 1ab (Severe acute respiratory syndrome coronavirus 2, UniProt P0DTD1). Nature of the assay: Inhibition of recombinant SARS-CoV-2 Delta 3CL protease using Dabcyl-KTSAVLQSGFRKME-Edans as substrate preincubated for 30 mins followed by substrate addition and measured for 1 hr by fluorescence based microplate reader analysis.

SMILES strings stand for the structures.

By IC50 is commonly meant the midpoint of a concentration-inhibition curve. Take `CCc1cccc(NC(=O)[C@@H](Cc2ccc(O)c(O)c2)OC(=O)/C=C/c2ccc(O)c(O)c2)c1`: the half-inhibitory concentration (IC50) is 45.7 µM.

In the case of `CCCCCCCCCCCCNC(=O)[C@@H](Cc1ccc(O)c(O)c1)OC(=O)/C=C/c1ccc(O)c(O)c1`, the 50% inhibitory concentration (IC50) was determined as 40.8 µM.

For the origin of these results see ChEMBL document CHEMBL5370560, “Isolation of Anti-SARS-CoV-2 Natural Products Extracted from Mentha canadensis and the Semi-synthesis of Antiviral Derivatives” (J Nat Prod, 2023).
